Test results from patent US11090319B2, “Therapeutic uses of pharmaceutical compositions comprising cyclic boronic acid ester derivatives” (Melinta Subsidiary Corp., priority 2010, dated 2021).

System: strains expressing KPC alone or in combination with additional beta-lactamases
Test: microbe, parasite or virus in culture
Type: cell-based
[1] = Klebsiella pneumoniae KP 1004, KPC-2, Compound 5 10 mg/L
[2] = Klebsiella pneumoniae KP 1008, KPC-2, Compound 5 0.31 mg/L
[3] = Klebsiella pneumoniae KP 1008, KPC-2, Compound 5 0.625 mg/L
[4] = Klebsiella pneumoniae KP 1008, KPC-2, Compound 5 […]
[5] = Klebsiella pneumoniae KP1082, KPC-2 SHV-1, Compound 5 0.31 mg/L
[6] = Klebsiella pneumoniae KP1082, KPC-2 SHV-1, Compound 5 0.625 mg/L
[7] = Klebsiella pneumoniae KP1082, KPC-2 SHV-1, Compound 5 5 mg/L
[8] = Klebsiella pneumoniae KP1082, KPC-2 SHV-1, Compound 5 10 mg/L
[9] = Klebsiella pneumoniae KP1082, KPC-2 SHV-1, Compound 5 […]
[10] = Klebsiella pneumoniae KP1083, KPC-3, SHV-1, TEM-1, Compound 5 10 mg/L
[11] = Klebsiella pneumoniae KP1083, KPC-3, SHV-1, TEM-1, Compound 5 […]
[12] = Klebsiella pneumoniae KP1084, KPC-3, SHV-11, TEM-1, Compound 5 5 mg/L
[13] = Klebsiella pneumoniae KP1084, KPC-3, SHV-11, TEM-1, Compound 5 10 mg/L
[14] = Klebsiella pneumoniae KP 1087, KPC-2, CTX-M-15, SHV-11, TEM-1, Compound 5 0.31 mg/L
[15] = Klebsiella pneumoniae KP 1087, KPC-2, CTX-M-15, SHV-11, TEM-1, Compound 5 0.625 mg/L
[16] = Klebsiella pneumoniae KP 1087, KPC-2, CTX-M-15, SHV-11, TEM-1, Compound 5 5 mg/L
[17] = Klebsiella pneumoniae KP 1087, KPC-2, CTX-M-15, SHV-11, TEM-1, Compound 5 10 mg/L
[18] = Klebsiella pneumoniae KP1088, KPC-3, SHV-11, TEM-1, Compound 5 0.31 mg/L
[19] = Klebsiella pneumoniae KP1088, KPC-3, SHV-11, TEM-1, Compound 5 0.625 mg/L
[20] = Klebsiella pneumoniae KP1088, KPC-3, SHV-11, TEM-1, Compound 5 5 mg/L
[21] = Klebsiella pneumoniae KP1088, KPC-3, SHV-11, TEM-1, Compound 5 10 mg/L

## O=C(O)C[C@@H]1CC[C@H](NC(=O)Cc2cccs2)B(O)O1 [Compound 5, 2-((3R,6S)-2-hydroxy-3-(2-(thiophen-2-yl)acetamido)-1,2-oxaborinan-6-yl)acetic acid]
Klebsiella pneumoniae KP 1004, KPC-2, Compound 5 5 mg/L
  MIC of Ertapenem: X (MIC of less than 0.5 mg/L)
[1]
  MIC of Biapenem: X (MIC of less than 0.5 mg/L)
  MIC of Doripenem: X (MIC of less than 0.5 mg/L)
  MIC of Ertapenem: X (MIC of less than 0.5 mg/L)
Klebsiella pneumoniae KP 1004, KPC-2, Compound 5 […]
  MIC of Biapenem: X (MIC of less than 0.5 mg/L)
[2]
  MIC of Biapenem: X (MIC of less than 0.5 mg/L)
  MIC of Doripenem: X (MIC of less than 0.5 mg/L)
  MIC of Ertapenem: X (MIC of less than 0.5 mg/L)
[3]
  MIC of Biapenem: X (MIC of less than 0.5 mg/L)
  MIC of Doripenem: X (MIC of less than 0.5 mg/L)
  MIC of Ertapenem: X (MIC of less than 0.5 mg/L)
[4]
  MIC of Biapenem: X (MIC of less than 0.5 mg/L)
  MIC of Doripenem: X (MIC of less than 0.5 mg/L)
  MIC of Ertapenem: X (MIC of less than 0.5 mg/L)
[5]
  MIC of Biapenem: X (MIC of less than 0.5 mg/L)
  MIC of Doripenem: X (MIC of less than 0.5 mg/L)
  MIC of Ertapenem: X (MIC of less than 0.5 mg/L)
[6]
  MIC of Biapenem: X (MIC of less than 0.5 mg/L)
  MIC of Doripenem: X (MIC of less than 0.5 mg/L)
  MIC of Ertapenem: X (MIC of less than 0.5 mg/L)
[7]
  MIC of Biapenem: X (MIC of less than 0.5 mg/L)
  MIC of Doripenem: X (MIC of less than 0.5 mg/L)
  MIC of Ertapenem: X (MIC of less than 0.5 mg/L)
[8]
  MIC of Biapenem: X (MIC of less than 0.5 mg/L)
  MIC of Doripenem: X (MIC of less than 0.5 mg/L)
  MIC of Ertapenem: X (MIC of less than 0.5 mg/L)
[9]
  MIC of Biapenem: X (MIC of less than 0.5 mg/L)
  MIC of Doripenem: X (MIC of less than 0.5 mg/L)
  MIC of Ertapenem: X (MIC of less than 0.5 mg/L)
[10]
  MIC of Doripenem: X (MIC of less than 0.5 mg/L)
  MIC of Ertapenem: X (MIC of less than 0.5 mg/L)
[11]
  MIC of Doripenem: Y (MIC of 0.5 mg/L to 4 mg/L)
  MIC of Ertapenem: Y (MIC of 0.5 mg/L to 4 mg/L)
Klebsiella pneumoniae KP1084, KPC-3, SHV-11, TEM-1, Compound 5 0.31 mg/L
  MIC of Ertapenem: Z (MIC of greater than 4 mg/L)
Klebsiella pneumoniae KP1084, KPC-3, SHV-11, TEM-1, Compound 5 0.625 mg/L
  MIC of Ertapenem: Z (MIC of greater than 4 mg/L)
[12]
  MIC of Biapenem: X (MIC of less than 0.5 mg/L)
  MIC of Doripenem: Y (MIC of 0.5 mg/L to 4 mg/L)
  MIC of Ertapenem: Y (MIC of 0.5 mg/L to 4 mg/L)
[13]
  MIC of Biapenem: X (MIC of less than 0.5 mg/L)
  MIC of Doripenem: X (MIC of less than 0.5 mg/L)
  MIC of Ertapenem: Y (MIC of 0.5 mg/L to 4 mg/L)
Klebsiella pneumoniae KP1084, KPC-3, SHV-11, TEM-1, Compound 5 […]
  MIC of Ertapenem: Z (MIC of greater than 4 mg/L)
[14]
  MIC of Biapenem: Z (MIC of greater than 4 mg/L)
  MIC of Doripenem: Z (MIC of greater than 4 mg/L)
  MIC of Ertapenem: Z (MIC of greater than 4 mg/L)
[15]
  MIC of Biapenem: Z (MIC of greater than 4 mg/L)
  MIC of Doripenem: Z (MIC of greater than 4 mg/L)
  MIC of Ertapenem: Z (MIC of greater than 4 mg/L)
[16]
  MIC of Biapenem: X (MIC of less than 0.5 mg/L)
  MIC of Doripenem: Y (MIC of 0.5 mg/L to 4 mg/L)
  MIC of Ertapenem: Y (MIC of 0.5 mg/L to 4 mg/L)
[17]
  MIC of Biapenem: X (MIC of less than 0.5 mg/L)
  MIC of Doripenem: X (MIC of less than 0.5 mg/L)
  MIC of Ertapenem: Y (MIC of 0.5 mg/L to 4 mg/L)
Klebsiella pneumoniae KP 1087, KPC-2, CTX-M-15, SHV-11, TEM-1, Compound 5 […]
  MIC of Ertapenem: Z (MIC of greater than 4 mg/L)
[18]
  MIC of Biapenem: X (MIC of less than 0.5 mg/L)
  MIC of Doripenem: Y (MIC of 0.5 mg/L to 4 mg/L)
  MIC of Ertapenem: Y (MIC of 0.5 mg/L to 4 mg/L)
[19]
  MIC of Biapenem: X (MIC of less than 0.5 mg/L)
  MIC of Doripenem: X (MIC of less than 0.5 mg/L)
  MIC of Ertapenem: X (MIC of less than 0.5 mg/L)
[20]
  MIC of Biapenem: X (MIC of less than 0.5 mg/L)
  MIC of Doripenem: X (MIC of less than 0.5 mg/L)
  MIC of Ertapenem: X (MIC of less than 0.5 mg/L)
[21]
  MIC of Biapenem: X (MIC of less than 0.5 mg/L)
  MIC of Doripenem: X (MIC of less than 0.5 mg/L)
  MIC of Ertapenem: X (MIC of less than 0.5 mg/L)
